For 19 compounds, T/C results are on record in PubChem BioAssay AID248 (DTP/NCI, 2004).

The experiment relates to L1210 leukemia ip in BDF1 mice, survival T/C. The experiment can be described thus: NCI In Vivo Anticancer Drug Screen. Data for tumor model L1210 Leukemia (intraperitoneal) in B6D2F1 (BDF1) mice. Conditions: endpoint: mean survival time, higher = longer survival. A digest of the protocol:
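Transplanted-tumor mice were given test agent; controls received vehicle only. Survival readings from the two groups were divided (treated over control).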

[1] abbreviates: dose: 100.0 mg/kg/injection, schedule: Q04DX003 (ip), vehicle: saline with Tween-80.
Where [2] appears, read: dose: 200.0 mg/kg/injection, schedule: Q04DX003 (ip), vehicle: saline with Tween-80.
The mark [3] stands for this setting: dose: 400.0 mg/kg/injection, schedule: Q04DX003 (ip), vehicle: saline with Tween-80.
Setting [4] is: dose: 25.0 mg/kg/injection, schedule: Q04DX003 (ip), vehicle: saline with Tween-80.
[5] abbreviates: dose: 75.0 mg/kg/injection, schedule: Q01DX009 (ip), vehicle: Klucel (hydroxypropylcellulose) (HPC).
Setting [6] is: dose: 100.0 mg/kg/injection, schedule: Q04DX003 (ip), vehicle: Klucel (hydroxypropylcellulose) (HPC).
Where [7] appears, read: dose: 150.0 mg/kg/injection, schedule: Q01DX009 (ip), vehicle: Klucel (hydroxypropylcellulose) (HPC).
Where [8] appears, read: dose: 200.0 mg/kg/injection, schedule: Q04DX003 (ip), vehicle: Klucel (hydroxypropylcellulose) (HPC).
The mark [9] stands for this setting: dose: 300.0 mg/kg/injection, schedule: Q01DX009 (ip), vehicle: Klucel (hydroxypropylcellulose) (HPC).
Where [10] appears, read: dose: 100.0 mg/kg/injection, schedule: Q01DX009 (ip), vehicle: Klucel (hydroxypropylcellulose) (HPC).
Where [11] appears, read: dose: 200.0 mg/kg/injection, schedule: Q01DX009 (ip), vehicle: Klucel (hydroxypropylcellulose) (HPC).

Values joined by “and” are separate entries in the source; they are usually repeats but may differ in a detail not shown here. Equal values may be shown once. Inconclusive results and toxic doses are left out.

Take `CC(=O)OC[C@]12CCC(C)=CC1O[C@@H]1C(OC(C)=O)[C@@H](O)[C@@]2(C)[C@]12CO2` (some centres undefined): the T/C reads like this: (dose: 0.4 mg/kg/injection, schedule: Q01DX009 (ip), vehicle: other) 97 % of control; (dose: 0.8 mg/kg/injection, schedule: Q01DX009 (ip), vehicle: other) 114 % of control; (dose: 1.6 mg/kg/injection, schedule: Q01DX009 (ip), vehicle: other) 114 % of control; (dose: 3.2 mg/kg/injection, schedule: Q01DX009 (ip), vehicle: other) 116 % of control.
Regarding `COC(=O)C1=C(C)NC(=S)NC1c1ccco1` (centres undefined), the T/C under setting [1] is 95 % of control, the T/C under setting [2] is 97 % of control and the T/C under setting [3] was 97 % of control.
On to `CCCC(CCC)NCCOC(=O)C(CC)c1ccccc1` (centres undefined), for which the T/C (dose: 75.0 mg/kg/injection, schedule: Q01DX001 (ip), vehicle: saline) is 94 % of control.
Regarding `N#CSCN1C(=O)C2CC=CCC2C1=O` (centres undefined), the T/C under setting [4] was 97 % of control.
Consider `COc1ccc([N+](=O)[O-])cc1NC(=O)NCCCl`, for which the T/C under setting [5] was 108 % of control; the T/C under setting [6] is 93 % of control; the T/C under setting [7] is 95 % of control; the T/C under setting [8] was 96 % of control; the T/C under setting [9] was 102 % of control; the T/C (dose: 400.0 mg/kg/injection, schedule: Q04DX003 (ip), vehicle: Klucel (hydroxypropylcellulose) (HPC)) is 98 % of control.
For the compound `CCCCN(CCCC)C(=S)S[As](SC(=S)N(CCCC)CCCC)SC(=S)N(CCCC)CCCC`, the T/C by setting is: under setting [10], 97 % of control; under setting [11], 90 % of control; (dose: 400.0 mg/kg/injection, schedule: Q01DX009 (ip), vehicle: Klucel (hydroxypropylcellulose) (HPC)) 97 % of control.
Take `C[C@]12C[C@H](O)[C@H]3[C@@H](CCC4=CC(=O)CC[C@@]43C)[C@@H]1CC[C@@H]2C(=O)CF`: the T/C (dose: 50.0 mg/kg/injection, schedule: Q01DX Z (sc), vehicle: steriod suspending solution) was 95 % of control; the T/C (dose: 250.0 mg/kg/injection, schedule: Q01DX Z (sc), vehicle: steriod suspending solution) is 102 % of control; the T/C (dose: 500.0 mg/kg/injection, schedule: Q01DX Z (sc), vehicle: steriod suspending solution) was 98 % of control.
For the compound `C=C1CC2(CCC3(CC2)CC(=C)C(=O)O3)OC1=O` (centres undefined), the T/C reads like this: (dose: 12.5 mg/kg/injection, schedule: Q04DX003 (ip), vehicle: saline) 102 % of control; (dose: 25.0 mg/kg/injection, schedule: Q04DX003 (ip), vehicle: saline) 116 % of control; (dose: 50.0 mg/kg/injection, schedule: Q04DX003 (ip), vehicle: saline) 119 % of control.
Turning to `CC1(C)OC2OC(C(O)c3cn(-c4ccccc4)nn3)C(O)C2O1` (centres undefined), the T/C was 97 % of control (dose: 100.0 mg/kg/injection, schedule: Q04DX002 (ip), vehicle: saline with Tween-80); 93 % of control (dose: 200.0 mg/kg/injection, schedule: Q04DX002 (ip), vehicle: saline with Tween-80); 110 % of control (dose: 400.0 mg/kg/injection, schedule: Q04DX002 (ip), vehicle: saline with Tween-80).
Take `COC1CCC2=C(C1)C(=O)CC1c3ccccc3CCN21` (centres undefined) (tested in a mixture with another compound): the T/C runs as follows: (dose: 6.25 mg/kg/injection, schedule: Q04DX003 (ip), vehicle: saline with Tween-80) 97 % of control; (dose: 12.5 mg/kg/injection, schedule: Q04DX003 (ip), vehicle: saline with Tween-80) 107 % of control; under setting [4], 102 % of control.
As for `COC(C)C1(C)NC(=O)NC1=O` (centres undefined), the T/C is 114 % of control (dose: 100.0 mg/kg/injection, schedule: Q01DX001 (ip), vehicle: saline); 110 % of control (dose: 200.0 mg/kg/injection, schedule: Q01DX001 (ip), vehicle: saline); 102 % of control (dose: 400.0 mg/kg/injection, schedule: Q01DX001 (ip), vehicle: saline).
In the case of `Nc1snc2ncccc12`, the T/C is 97 % of control (dose: 50.0 mg/kg/injection, schedule: Q01DX009 (ip), vehicle: Klucel (hydroxypropylcellulose) (HPC)); 92 % of control under setting [10]; 89 % of control under setting [6]; 103 % of control under setting [11]; 87 % of control under setting [8].
Take `COC1=C(Cl)C(OC)(OC)C(Cl)=C1Cl`: the T/C reads like this: (dose: 75.0 mg/kg/injection, schedule: Q01DX001 (ip), vehicle: carboxymethylcellulose (CMC)) 107 % of control; (dose: 150.0 mg/kg/injection, schedule: Q01DX001 (ip), vehicle: carboxymethylcellulose (CMC)) 102 % of control; (dose: 300.0 mg/kg/injection, schedule: Q01DX001 (ip), vehicle: carboxymethylcellulose (CMC)) 104 % of control.
In the case of `CC(C)Nc1ccc(O)cc1`, the T/C (dose: 100.0 mg/kg/injection, schedule: Q04DX002 (ip), vehicle: Klucel (hydroxypropylcellulose) (HPC)) is 106 % of control and the T/C (dose: 200.0 mg/kg/injection, schedule: Q04DX002 (ip), vehicle: Klucel (hydroxypropylcellulose) (HPC)) is 95 % of control.
As to `CC(=O)CC(=O)NC1CCCCC1`, the T/C was 105 % of control (dose: 100.0 mg/kg/injection, schedule: Q01DX009 (ip), vehicle: saline with Tween-80); 96 % of control under setting [1]; 100 % of control (dose: 200.0 mg/kg/injection, schedule: Q01DX009 (ip), vehicle: saline with Tween-80); 94 % of control under setting [2]; 95 % of control (dose: 400.0 mg/kg/injection, schedule: Q01DX009 (ip), vehicle: saline with Tween-80); 94 % of control under setting [3].
Take `CCOC1NC(C)(C)CO1` (centres undefined): the T/C (dose: 100.0 mg/kg/injection, schedule: Q01DX009 (ip), vehicle: saline) was 101 % of control; the T/C (dose: 100.0 mg/kg/injection, schedule: Q04DX003 (ip), vehicle: saline) was 115 % of control; the T/C (dose: 200.0 mg/kg/injection, schedule: Q01DX009 (ip), vehicle: saline) was 101 % of control; the T/C (dose: 200.0 mg/kg/injection, schedule: Q04DX003 (ip), vehicle: saline) was 97 % of control; the T/C (dose: 400.0 mg/kg/injection, schedule: Q01DX009 (ip), vehicle: saline) was 97 % of control; the T/C (dose: 400.0 mg/kg/injection, schedule: Q04DX003 (ip), vehicle: saline) is 121 % of control.
Turning to `CSC(c1ccccc1)=[N+]1CCOCC1`, the T/C (dose: 50.0 mg/kg/injection, schedule: Q01DX009 (ip), vehicle: saline sonified) was 100 % of control; the T/C (dose: 100.0 mg/kg/injection, schedule: Q01DX009 (ip), vehicle: saline sonified) was 94 % of control; the T/C under setting [6] was 102 % of control; the T/C (dose: 200.0 mg/kg/injection, schedule: Q01DX009 (ip), vehicle: saline sonified) was 100 % of control; the T/C under setting [8] was 98 % of control.
As for `O=NN(CCCl)C(=O)Nc1ccc(Oc2ccc(NC(=O)N(CCCl)N=O)cc2)cc1`, the T/C is, setting by setting: (dose: 375.0 mg/kg/injection, schedule: Q01DX001 (ip), vehicle: carboxymethylcellulose (CMC)) 192 % of control; (dose: 500.0 mg/kg/injection, schedule: Q01DX001 (ip), vehicle: carboxymethylcellulose (CMC)) 198 % of control; (dose: 750.0 mg/kg/injection, schedule: Q01DX001 (ip), vehicle: carboxymethylcellulose (CMC)) 190 % of control; (dose: 1000.0 mg/kg/injection, schedule: Q01DX001 (ip), vehicle: carboxymethylcellulose (CMC)) 154 % of control and 246 % of control; (dose: 1250.0 mg/kg/injection, schedule: Q01DX001 (ip), vehicle: carboxymethylcellulose (CMC)) 104 % of control; (dose: 1500.0 mg/kg/injection, schedule: Q01DX001 (ip), vehicle: carboxymethylcellulose (CMC)) 122 % of control. In addition, the T/C (dose: 2000.0 mg/kg/injection, schedule: Q01DX001 (ip), vehicle: carboxymethylcellulose (CMC)) was 86 % of control.
Consider `Cc1c2ccncc2cc2c3ccccc3n(CC3CO3)c12` (centres undefined), for which the T/C was 96 % of control (dose: 37.5 mg/kg/injection, schedule: Q01DX009 (ip), vehicle: Klucel (hydroxypropylcellulose) (HPC)); 104 % of control (dose: 37.5 mg/kg/injection, schedule: Q04DX003 (ip), vehicle: Klucel (hydroxypropylcellulose) (HPC)); 96 % of control under setting [5]; 106 % of control and 119 % of control (dose: 75.0 mg/kg/injection, schedule: Q04DX003 (ip), vehicle: Klucel (hydroxypropylcellulose) (HPC)); 100 % of control under setting [7]; 113 % of control (dose: 150.0 mg/kg/injection, schedule: Q04DX003 (ip), vehicle: Klucel (hydroxypropylcellulose) (HPC)). Moreover, under setting [9], the T/C was 102 % of control.
